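Grown in 96-well plates, cells were treated for 48 hours with each compound at five concentrations. Insufficient inhibition: endpoint recorded as highest concentration tested. GI50: concentration for 50% inhibition of growth. TGI: concentration producing complete growth inhibition.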
Assays:
Assay in all cases: DTP human tumour cell line panel, 48 h
786-0 renal = tested on: 786-0 renal
A498 renal = tested on: A498 renal
A549 NSCLC = tested on: A549 NSCLC
ACHN renal = tested on: ACHN renal
BT-549 breast = tested on: BT-549 breast
CAKI-1 renal = tested on: CAKI-1 renal
CCRF-CEM leukemia = tested on: CCRF-CEM leukemia
COLO 205 colon = tested on: COLO 205 colon
DU-145 prostate = tested on: DU-145 prostate
HCC-2998 colon = tested on: HCC-2998 colon
HCT-116 colon = tested on: HCT-116 colon
HCT-15 colon = tested on: HCT-15 colon
HL-60(TB) leukemia = tested on: HL-60(TB) leukemia
HOP-62 NSCLC = tested on: HOP-62 NSCLC
HOP-92 NSCLC = tested on: HOP-92 NSCLC
HS 578T breast = tested on: HS 578T breast
HT29 colon = tested on: HT29 colon
IGROV1 ovarian = tested on: IGROV1 ovarian
K-562 leukemia = tested on: K-562 leukemia
KM12 colon = tested on: KM12 colon
LOX IMVI melanoma = tested on: LOX IMVI melanoma
M14 melanoma = tested on: M14 melanoma
MALME-3M melanoma = tested on: MALME-3M melanoma
MCF7 breast = tested on: MCF7 breast
MDA-MB-231 breast = tested on: MDA-MB-231 breast
MDA-MB-435 = tested on: MDA-MB-435
MOLT-4 leukemia = tested on: MOLT-4 leukemia
NCI-H226 lung = tested on: NCI-H226 lung
NCI-H23 lung = tested on: NCI-H23 lung
NCI-H460 lung = tested on: NCI-H460 lung
NCI-H522 lung = tested on: NCI-H522 lung
NCI/ADR-RES ovarian = tested on: NCI/ADR-RES ovarian
OVCAR-3 ovarian = tested on: OVCAR-3 ovarian
OVCAR-4 ovarian = tested on: OVCAR-4 ovarian
OVCAR-5 ovarian = tested on: OVCAR-5 ovarian
OVCAR-8 ovarian = tested on: OVCAR-8 ovarian
PC-3 prostate = tested on: PC-3 prostate
RPMI-8226 leukemia = tested on: RPMI-8226 leukemia
RXF 393 renal = tested on: RXF 393 renal
SF-268 CNS = tested on: SF-268 CNS
SF-539 CNS = tested on: SF-539 CNS
SK-MEL-2 melanoma = tested on: SK-MEL-2 melanoma
SK-MEL-28 melanoma = tested on: SK-MEL-28 melanoma
SK-MEL-5 melanoma = tested on: SK-MEL-5 melanoma
SK-OV-3 ovarian = tested on: SK-OV-3 ovarian
SN12C renal = tested on: SN12C renal
SNB-19 CNS = tested on: SNB-19 CNS
SR leukemia = tested on: SR leukemia
SW-620 colon = tested on: SW-620 colon
T-47D breast = tested on: T-47D breast
TK-10 renal = tested on: TK-10 renal
U251 CNS = tested on: U251 CNS
UACC-257 melanoma = tested on: UACC-257 melanoma
UACC-62 melanoma = tested on: UACC-62 melanoma
UO-31 renal = tested on: UO-31 renal

Nc1nc(-c2ccccc2Cl)cc(-c2ccc(Cl)cc2Cl)n1
GI50 (786-0 renal): 20.2 µM
TGI (786-0 renal): > 100 µM
GI50 (A498 renal): 3.34 µM
TGI (A498 renal): 22.8 µM
GI50 (A549 NSCLC): 4.81 µM
TGI (A549 NSCLC): > 100 µM
GI50 (ACHN renal): 10.4 µM
TGI (ACHN renal): > 100 µM
GI50 (BT-549 breast): 13.8 µM
TGI (BT-549 breast): > 100 µM
GI50 (CAKI-1 renal): 9.27 µM
TGI (CAKI-1 renal): > 100 µM
GI50 (CCRF-CEM leukemia): 4.17 µM
TGI (CCRF-CEM leukemia): > 100 µM
GI50 (COLO 205 colon): 3.52 µM
TGI (COLO 205 colon): 15.5 µM
GI50 (DU-145 prostate): 5.33 µM
TGI (DU-145 prostate): 70.1 µM
GI50 (HCC-2998 colon): 7.19 µM
TGI (HCC-2998 colon): 44 µM
GI50 (HCT-116 colon): 4.27 µM
TGI (HCT-116 colon): > 100 µM
GI50 (HCT-15 colon): 5.09 µM
TGI (HCT-15 colon): > 100 µM
GI50 (HL-60(TB) leukemia): 3.14 µM
TGI (HL-60(TB) leukemia): 17.3 µM
GI50 (HOP-62 NSCLC): 8.21 µM
TGI (HOP-62 NSCLC): > 100 µM
GI50 (HOP-92 NSCLC): 0.527 µM
TGI (HOP-92 NSCLC): 7.62 µM
GI50 (HS 578T breast): 6.04 µM
TGI (HS 578T breast): 60.7 µM
GI50 (HT29 colon): 4.32 µM
TGI (HT29 colon): 24.3 µM
GI50 (IGROV1 ovarian): 12.3 µM
TGI (IGROV1 ovarian): > 100 µM
GI50 (K-562 leukemia): 3.97 µM
TGI (K-562 leukemia): > 100 µM
GI50 (KM12 colon): 4.1 µM
TGI (KM12 colon): 31.3 µM
GI50 (LOX IMVI melanoma): 4.89 µM
TGI (LOX IMVI melanoma): > 100 µM
GI50 (M14 melanoma): 5.95 µM
TGI (M14 melanoma): > 100 µM
GI50 (MALME-3M melanoma): 17.7 µM
TGI (MALME-3M melanoma): > 100 µM
GI50 (MCF7 breast): 3.45 µM
TGI (MCF7 breast): > 100 µM
GI50 (MDA-MB-231 breast): 9.3 µM
TGI (MDA-MB-231 breast): > 100 µM
GI50 (MDA-MB-435): 1.97 µM
TGI (MDA-MB-435): 4.93 µM
GI50 (MOLT-4 leukemia): 4.82 µM
TGI (MOLT-4 leukemia): > 100 µM
GI50 (NCI-H226 lung): 18.1 µM
TGI (NCI-H226 lung): > 100 µM
GI50 (NCI-H23 lung): 12.3 µM
TGI (NCI-H23 lung): > 100 µM
GI50 (NCI-H460 lung): 3.31 µM
TGI (NCI-H460 lung): 23.1 µM
GI50 (NCI-H522 lung): 3.27 µM
TGI (NCI-H522 lung): 23.3 µM
GI50 (NCI/ADR-RES ovarian): 14.8 µM
TGI (NCI/ADR-RES ovarian): > 100 µM
GI50 (OVCAR-3 ovarian): 4.05 µM
TGI (OVCAR-3 ovarian): 20.7 µM
GI50 (OVCAR-4 ovarian): 12.1 µM
TGI (OVCAR-4 ovarian): 89.7 µM
GI50 (OVCAR-5 ovarian): 8.09 µM
TGI (OVCAR-5 ovarian): > 100 µM
GI50 (OVCAR-8 ovarian): 6.87 µM
TGI (OVCAR-8 ovarian): > 100 µM
GI50 (PC-3 prostate): 5.43 µM
TGI (PC-3 prostate): > 100 µM
GI50 (RPMI-8226 leukemia): 3.1 µM
TGI (RPMI-8226 leukemia): 17.6 µM
GI50 (RXF 393 renal): 2.67 µM
TGI (RXF 393 renal): 10.7 µM
GI50 (SF-268 CNS): 5.01 µM
TGI (SF-268 CNS): 81.6 µM
GI50 (SF-539 CNS): 7.39 µM
TGI (SF-539 CNS): 67 µM
GI50 (SK-MEL-2 melanoma): 6.1 µM
TGI (SK-MEL-2 melanoma): 44.8 µM
GI50 (SK-MEL-28 melanoma): 20.9 µM
TGI (SK-MEL-28 melanoma): > 100 µM
GI50 (SK-MEL-5 melanoma): 4.78 µM
TGI (SK-MEL-5 melanoma): 20.8 µM
GI50 (SK-OV-3 ovarian): 10.1 µM
TGI (SK-OV-3 ovarian): 62.3 µM
GI50 (SN12C renal): 13.1 µM
TGI (SN12C renal): > 100 µM
GI50 (SNB-19 CNS): 16.1 µM
TGI (SNB-19 CNS): > 100 µM
GI50 (SR leukemia): 4.1 µM
TGI (SR leukemia): > 100 µM
GI50 (SW-620 colon): 3.41 µM
TGI (SW-620 colon): > 100 µM
GI50 (T-47D breast): 6.58 µM
TGI (T-47D breast): > 100 µM
GI50 (TK-10 renal): 9.46 µM
TGI (TK-10 renal): 51 µM
GI50 (U251 CNS): 11.1 µM
TGI (U251 CNS): > 100 µM
GI50 (UACC-257 melanoma): 11.9 µM
TGI (UACC-257 melanoma): 55.2 µM
GI50 (UACC-62 melanoma): 5.93 µM
TGI (UACC-62 melanoma): 44.2 µM
GI50 (UO-31 renal): 13.5 µM
TGI (UO-31 renal): > 100 µM

Source: PubChem BioAssay (NCI)
